Data as given in PubChem BioAssay (NCI).
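Cells were grown in 96-well plates and exposed to each compound for 48 hours at five concentrations; endpoints were interpolated linearly between bracketing concentrations, or set to the highest concentration if not reached. Here, GI50 denotes the concentration required for 50% inhibition of growth. TGI marks complete inhibition of growth.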

Legend:
Test in all cases: inhibition of tumour cell growth, NCI panel, 48 h
CAKI-1 renal = system: CAKI-1 renal
NCI-H226 lung = system: NCI-H226 lung
OVCAR-3 ovarian = system: OVCAR-3 ovarian
COLO 205 colon = system: COLO 205 colon
LOX IMVI melanoma = system: LOX IMVI melanoma
UO-31 renal = system: UO-31 renal
SF-539 CNS = system: SF-539 CNS
UACC-257 melanoma = system: UACC-257 melanoma
HT29 colon = system: HT29 colon
UACC-62 melanoma = system: UACC-62 melanoma

| SMILES | TGI (CAKI-1 renal) | TGI (NCI-H226 lung) | TGI (OVCAR-3 ovarian) | TGI (COLO 205 colon) | TGI (LOX IMVI melanoma) | TGI (UO-31 renal) | TGI (SF-539 CNS) | TGI (UACC-257 melanoma) | TGI (HT29 colon) | TGI (UACC-62 melanoma) | GI50 (CAKI-1 renal) | GI50 (NCI-H226 lung) | GI50 (OVCAR-3 ovarian) | GI50 (COLO 205 colon) | GI50 (LOX IMVI melanoma) | GI50 (UO-31 renal) | GI50 (UACC-62 melanoma) | GI50 (SF-539 CNS) | GI50 (UACC-257 melanoma) | GI50 (HT29 colon) |
| --- | --- | --- | --- | --- | --- | --- | --- | --- | --- | --- | --- | --- | --- | --- | --- | --- | --- | --- | --- | --- |
| N=C(N)SCc1cn2ccccc2n1 | > 100 µM | > 100 µM | > 100 µM | > 100 µM | > 100 µM | > 100 µM | > 100 µM | > 100 µM | > 100 µM |  |  |  |  |  |  |  |  |  |  |  |
| C/C(=N/N(C=O)C[n+]1ccccc1)C(CN(CC(C)C)CC(C)C)C(=O)Nc1ccc(C)cc1C (centres undefined) | > 100 µM |  | > 100 µM | > 100 µM |  | 84.3 µM | > 100 µM | > 100 µM | > 100 µM | > 100 µM |  |  |  |  |  |  |  |  |  |  |
| N#Cc1ccc(-c2nc(C#N)c(N)o2)cc1 | > 10 µM | > 10 µM |  | > 10 µM | > 10 µM | > 10 µM | > 10 µM | > 10 µM | > 10 µM | > 10 µM |  |  |  |  |  |  |  |  |  |  |
| CON(C)C(=O)C(C)NC(=O)OCc1ccccc1 (centres undefined) |  | > 100 µM | > 100 µM |  |  | > 100 µM | > 100 µM | > 100 µM | > 100 µM | > 100 µM |  |  |  |  |  |  |  |  |  |  |
| COc1ccc(Cl)cc1Nc1nc(C(F)(F)F)ccc1C(=O)NN | 22.7 µM | > 100 µM | > 24.5 µM | > 100 µM | > 65.4 µM | > 76.7 µM | > 30.7 µM | > 30.2 µM | > 100 µM | 53.5 µM | 2740 nM | 3.62 µM | 615 nM | 7.76 µM | 2570 nM | 3970 nM | 4870 nM | 6520 nM | 3.87 µM | 26300 nM |
| COc1ccc(C(C2=C(C)C(=O)c3ccccc3C2=O)c2ccc(C(C)C)cc(=O)c2O)cc1 (centres undefined) | 7.91 µM | 4.94 µM | 8.54 µM | 20.7 µM | 17.6 µM | 5.12 µM | 5.8 µM |  | 35.3 µM |  |  |  |  |  |  |  |  |  |  |  |
| O=C(C(=O)c1ccc(Cc2ccc(C(=O)C(=O)c3ccccc3)cc2)cc1)c1ccccc1 | > 100 µM | > 100 µM | > 100 µM | > 100 µM | > 100 µM | > 100 µM | > 100 µM | > 100 µM | > 100 µM | > 100 µM |  |  |  |  |  |  |  |  |  |  |
| CC[C@H](C)[C@H](NC(=O)c1cnccn1)C(=O)N(C)[C@H](C[C@@H](OC(C)=O)c1nc(C(=O)N[C@@H](Cc2ccccc2)C[C@H](C)C(=O)OC)cs1)C(C)C |  | > 33.3 µM | 1.62 µM | 4.1 µM | > 33.3 µM | > 33.3 µM | 2.09 µM | 22.1 µM | 6.75 µM | > 33.3 µM |  | 4.74 µM | 665 nM | 1.17 µM | 1630 nM | 2230 nM | 105 nM | 779 nM | 5.21 µM | 1060 nM |
| NS(=O)(=O)c1ccc(N2Cc3cc(Cl)ccc3OC3=C2C(=O)N(CC2CCCCC2)C3=O)cc1 | 2.55 µM | 3.6 µM | 0.429 µM | 2.28 µM | 2.32 µM | 2.32 µM | 2.82 µM | 3 µM | 1.1 µM | 1.61 µM | 1240 nM | 1.54 µM | 207 nM | 0.716 µM | 1010 nM | 1100 nM | 377 nM | 1470 nM | 1.54 µM | 392 nM |
| N#CC(C#N)SCc1ccccc1 | > 100 µM | 76.6 µM | > 100 µM | > 33.2 µM | > 19.8 µM | > 100 µM | 13.1 µM | > 100 µM | 62.8 µM | > 93.1 µM |  |  |  |  |  |  |  |  |  |  |
| CC1=C(C(=O)NC2CCCCC2)CC(C(=O)NC2CCCCC2)=C(C)N1 | > 100 µM |  | > 100 µM | > 100 µM | > 100 µM | > 100 µM | > 100 µM | > 100 µM |  | > 100 µM |  |  |  |  |  |  |  |  |  |  |
| Nc1cc(N)c2nc(-c3ccccc3)c(Oc3ccc(F)cc3)nc2c1 | 37 µM | 49.1 µM | 41.7 µM | 36.5 µM | > 100 µM | > 100 µM | 35.7 µM | 42.6 µM | 50.7 µM | 33.2 µM | 19400 nM | 20.3 µM | 15400 nM | 20 µM | 43300 nM | 29600 nM | 15800 nM | 18100 nM | 23.2 µM | 22700 nM |
| Cc1cc(O)c2c(c1)C(O)(c1ccc3c(c1O)C(=O)c1c(O)cc(C)cc1C3(O)C1OC(CO)C(O)C(O)C1O)c1cccc(O)c1C2=O (centres undefined) | 31.7 µM |  | 22.6 µM |  | 28 µM | 32 µM | 26.5 µM | 28.7 µM | 38.4 µM | 25.3 µM |  |  |  |  |  |  |  |  |  |  |
| Nc1nc2c(ncn2Cc2ccccc2CCO)c(=O)[nH]1 | > 100 µM | > 100 µM | > 100 µM | > 100 µM | > 100 µM | > 100 µM |  |  | > 100 µM | > 100 µM |  |  |  |  |  |  |  |  |  |  |
| COc1cc(Nc2ccnc(N3CCN(c4ccnc5cc(Cl)ccc45)CC3)n2)cc(OC)c1 |  | > 55.7 µM | > 28.9 µM |  | 5.68 µM | > 30.7 µM | 3.17 µM | > 100 µM | 2.96 µM | 3.76 µM |  | 2.34 µM | 2530 nM |  | 749 nM | 938 nM | 614 nM | 1250 nM | 3.35 µM | 460 nM |
| O=c1nc(-c2ccccc2)c2c3c(cccn13)CCC2 | > 100 µM | > 100 µM | > 100 µM |  | > 100 µM | > 100 µM | > 100 µM | > 100 µM | > 100 µM | > 100 µM |  |  |  |  |  |  |  |  |  |  |
| O=C(c1ccccc1)c1c(CC(O)c2cccnc2)n(C(=O)c2ccccc2)c2ccccc12 (centres undefined) | 70.6 µM | 24.6 µM | 32.9 µM | 40.6 µM |  | 32.6 µM | 30.6 µM | 42 µM | 35.6 µM | 34.3 µM |  |  |  |  |  |  |  |  |  |  |
| CC(O)CNC1=CC(=O)C(=O)c2ccccc21 (centres undefined) | 33.5 µM |  | 13.4 µM | 22 µM | 34.8 µM | 34 µM | 38.5 µM | 30.3 µM |  | 26.8 µM |  |  |  |  |  |  |  |  |  |  |
| COc1ccc(C2SC(N)=Nc3c2c(C)nn3C(=O)c2ccc(Cl)cc2)cc1OC (centres undefined) | > 10 µM | > 10 µM | > 10 µM | > 10 µM | > 10 µM |  | > 10 µM | > 10 µM | > 10 µM | > 10 µM |  |  |  |  |  |  |  |  |  |  |
